# Reference: PMC10439952, “JT002, a small molecule inhibitor of the NLRP3 inflammasome for the treatment of autoinflammatory disorders” (Scientific Reports, 2023)
# “Also recorded” adds a separate entry of the source.
# Columns and labels:
# [1] = molecular target: NLRP3 inflammasome (Mus musculus, UniProt Q8R4B8); assay: In vivo target engagement: ex vivo LPS + ATP stimulated IL-1β production in blood of orally dosed mice; settings: single oral dose 25 mg/kg
# Experimental: In vivo pharmacodynamics (PD) were evaluated in mice for determination of target engagement as this species is routinely used for assessment of preclinical efficacy. Treatment of fresh, whole blood with LPS plus ATP results in the NLRP3-dependent release of IL-1β, thus providing a robust method for tracking target engagement of NLRP3 inflammasome inhibitors in the circulation after oral dose administration[36],[47]. In vivo target engagement using ex vivo stimulation of blood was evaluated in mice at various times after oral dosing of JT002. For each time point tested, one group of mice received a single oral dose of 25 mg/kg JT002 (n = 8/group) and another group received the vehicle control (n = 8/group). At the time of harvest, blood was collected from each animal and an aliquot removed and processed to plasma for determination of JT002 concentrations. The remaining blood was stimulated ex vivo with LPS plus ATP followed by analysis of IL-1β concentrations (Fig. 3A). […] Consistent with these findings, plasma concentrations of JT002 decreased over time, with mean concentrations of ≥ 4.0 µM through 8 h and a mean concentration of 6 nM at the 24-h sampling (Fig. 3C,D). […]
# [2] = test system: Nlrp3 A350V/+ CreT knock-in mice; assay: Nlrp3 A350V/+ CreT knock-in mouse model of Muckle Wells syndrome; assay type: in vivo; settings: 30 mg/kg orally once daily
# Experimental: The effect of JT002 treatment on systemic and hepatic inflammation and hepatic fibrosis was evaluated in vivo using a murine Nlrp3 knock-in (KI) model of human Muckle Wells syndrome. In humans, mutation of alanine 352 to valine (A352V) in NLRP3 results in the constitutively active NLRP3 inflammasome which leads to excessive cytokine production and a clinical presentation characteristic of MWS[11]. The Nlrp3^A350V/+ CreT KI murine model (Nlrp3 KI model) contains a conditional A350V autosomal-dominant mutation that is analogous to the human A352V mutation[13],[23],[25]. In this model, mutant Nlrp3 expression occurs only in mice expressing Cre recombinase, which is inducible through the administration of tamoxifen, thus allowing for temporal control of the gain-of-function mutant Nlrp3. In vehicle-control mice, tamoxifen-induced activation of mutant Nlrp3 produces an inflammatory and fibrotic phenotype consisting of weight loss, increased liver weight, elevated liver alanine aminotransferase (ALT), systemic and hepatic neutrophilia, increased hepatic collagen deposition, and increased numbers of activated hepatic stellate cells (HSCs)[13],[23],[25]. In the Nlrp3^A350V/+ CreT study, vehicle or 30 mg/kg JT002 (n = 4/group) was dosed orally once daily starting one day prior to the first administration of tamoxifen. One animal from each group was found dead on day 4 and day 11 from the JT002 dosed group and the vehicle group, respectively, leaving only 3 animals per group. […] Serum levels of ALT in vehicle-treated mice averaged 186 U/L while ALT levels were reduced to 93 U/L in mice administered JT002 (Fig. 4C).
# Total RNA was isolated from liver tissue (~ 50 mg) via syringe homogenization in TRIzol™ and cDNA synthesized using the iScript™ cDNA Synthesis kit (Biorad, Hercules, CA, USA). Real-time PCR was performed using TaqMan Fast Advanced Master Mix (ThermoFisher) and samples were amplified using QuantStudio-7 (ThermoFisher) in accordance with manufacturers’ instructions. The following TaqMan Gene Expression Assays (cat. no. 4331182, Applied Biosystems, Foster City, CA) were used: Acta2, Mm00725412_s1; Ctgf, Mm01192933_g1; Mpo, Mm01298424_m1; Pycard, Mm00445747_g1; Casp1, Mm00438023_m1; Il1b assay ID Mm00434228_m1.
# Nlrp3^A350V/+ CreT knock-in mice were provided by Hal M. Hoffman, University of California, San Diego, USA. The study was performed using two randomized groups of male and female Nlrp3^A350V/+ CreT mice (n = 4/group) between 6- and 8-weeks of age at the start of the study. Vehicle (0.5% methyl cellulose, 0.25% Tween 80 in 50 mM NaH2PO4/Na2HPO4 at pH 7.8) or JT002 at 30 mg/kg was administered orally once daily for 30 days starting on Day 1. Tamoxifen (free base) (MP Biomedicals, Solon, OH, USA) was prepared in 90% sunflower seed oil and 10% ethanol and administered at 50 mg/kg intraperitoneally (IP) daily for 4 consecutive days, starting on Day 1, followed by a booster injection on Day 16. Mice were weighed every day to monitor compound activity. On Day 29, a submandibular cheek bleed was performed to obtain whole blood for total blood cell counting. Mice were euthanized on Day 30 and blood and livers were harvested and stored appropriately. Tissue specimens were fixed in 10% formalin and subsequently embedded in paraffin for histopathological assessments, or snap frozen in liquid N2 and stored in low temperature freezers. Complete blood counts and differentials were conducted on a HemaVet Auto Blood Analyzer (Drew Scientific, Miami Lakes, FL, USA). In vitro quantitative determination of alanine aminotransferase (ALT) in serum was performed using the Infinity™ ALT (GPT) Liquid Stable Reagent (cat. n. TR71121, Fisher Diagnostics, Middletown, VA, USA). Sirius Red staining and immunohistochemistry for hepatic MPO and αSMA were performed as described previously.
# Chain of NLRP3 inflammasome (Q8R4B8 whole entry): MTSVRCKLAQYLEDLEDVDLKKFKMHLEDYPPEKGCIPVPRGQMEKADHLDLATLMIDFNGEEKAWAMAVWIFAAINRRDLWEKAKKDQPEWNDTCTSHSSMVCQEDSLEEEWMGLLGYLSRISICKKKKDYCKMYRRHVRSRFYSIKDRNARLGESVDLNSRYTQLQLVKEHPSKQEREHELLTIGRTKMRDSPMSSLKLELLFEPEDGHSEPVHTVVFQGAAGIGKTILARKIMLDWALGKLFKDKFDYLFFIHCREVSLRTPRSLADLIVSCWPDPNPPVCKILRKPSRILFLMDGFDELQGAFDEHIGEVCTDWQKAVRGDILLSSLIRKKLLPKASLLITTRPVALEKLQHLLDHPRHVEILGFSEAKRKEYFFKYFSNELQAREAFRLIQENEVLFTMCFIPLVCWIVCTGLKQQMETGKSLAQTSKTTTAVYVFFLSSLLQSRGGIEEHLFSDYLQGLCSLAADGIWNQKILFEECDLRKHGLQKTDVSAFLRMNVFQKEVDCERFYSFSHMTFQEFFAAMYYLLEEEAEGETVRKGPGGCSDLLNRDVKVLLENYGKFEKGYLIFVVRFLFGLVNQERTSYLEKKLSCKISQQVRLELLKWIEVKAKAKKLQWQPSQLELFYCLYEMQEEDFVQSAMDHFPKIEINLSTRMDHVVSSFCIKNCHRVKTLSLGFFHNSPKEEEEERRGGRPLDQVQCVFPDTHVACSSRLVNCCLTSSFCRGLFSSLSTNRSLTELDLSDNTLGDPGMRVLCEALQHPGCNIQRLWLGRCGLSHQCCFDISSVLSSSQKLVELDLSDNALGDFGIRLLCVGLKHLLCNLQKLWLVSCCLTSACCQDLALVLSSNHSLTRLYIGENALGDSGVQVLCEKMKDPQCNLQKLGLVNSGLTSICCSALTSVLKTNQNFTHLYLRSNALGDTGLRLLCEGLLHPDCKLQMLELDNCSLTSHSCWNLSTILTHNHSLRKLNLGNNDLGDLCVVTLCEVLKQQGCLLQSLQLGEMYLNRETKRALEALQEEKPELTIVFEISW
smiles,measurement,setting,value
CO[C@@H]1COc2c(S(=O)(=O)NC(=O)Nc3c4c(cc5c3CCC5)CCC4)cnn2C1 [JT002],inhibition at 25 mg/kg,"[1]; mouse, 4- and 8-h post-dosing",≥ 97%
same,inhibition of ex vivo stimulated IL-1β production,"[1]; 24-h post-dosing, 25 mg/kg",no significant inhibition; also recorded: lack of inhibition
same,body weight loss,[2],prevented the body weight loss
same,circulating eosinophil count,[2],strong trend for reduced
same,circulating neutrophil count,[2],significant normalization
same,circulating total white blood cell count,[2],significant normalization
same,degree of liver inflammation by H&E staining,[2],visible reduction in the degree of inflammation
same,hepatic collagen content (Picrosirius red staining),[2],considerably reduced
same,hepatic gene expression of Acta2,[2],substantially downregulated
same,hepatic gene expression of Casp1,[2],substantially reduced
same,hepatic gene expression of Ctgf,[2],substantially downregulated
same,hepatic gene expression of Il1b,[2],substantially reduced
same,hepatic gene expression of Mpo,[2],substantially reduced
same,hepatic gene expression of Pycard (ASC),[2],substantially reduced
same,reduction in hepatic immunostaining for αSMA (HSC activation),[2],93%
same,reduction of hepatic neutrophil recruitment (myeloperoxidase immunostaining),[2],91%
same,liver weight as a percent of body weight,[2]; vehicle 9.4,5.7%
same,serum ALT level,[2]; vehicle 186 U/L,93 U/L
